From US20240368096A1 (Enanta Pharmaceuticals, Inc., priority 2022, published 2024)

tested on: HBV; assay: HBV infection in HepG2-NTCP cells (HBeAg AlphaLISA in supernatants); type: cell-based; details: HBV infection of HepG2-NTCP cells; HBeAg in supernatants at day 8 post infection; read-out: Cellular EC50
Protocol: HepG2-NTCP A3 cells were maintained in DMEM media supplemented with GlutaMAX™ 10% fetal bovine serum, 1% penicillin/streptomycin, and 5 μg/mL puromycin at 37° C. in a humidified atmosphere with 5% CO2 in a collagen-coated tissue culture flask.
HepG2-NTCP cells were seeded in 384 well plate containing 16,000 cells/well two days prior to the infection. On the day of infection, compounds were 3-fold serially diluted in DMSO and pre-incubated with HepG2-NTCP cells for two hours before purified HBV addition. HBV infection was carried out at 2000 GE/cell with 4% PEG, and the final concentration of DMSO is 0.5%. On day one post infection, HBV-containing media was aspirated, cells were washed once with PBS and then maintained in 2.5% DMSO containing media for the remainder of the assay.
Supernatants from infected HepG2-NTCP cells were collected at day 8 post infection, and the amount of viral antigen HBeAg was measured by HBeAg AlphaLISA detection kit (PerkinElmer) following the manufacturer's recommended protocol. Irrespective of readout, compound concentrations that reduce viral product accumulation in supernatants by […] relative to DMSO controls (EC50) are reported. EC50 ranges are as follows: A<0.1 μM; B 0.1-1 μM; C>1 μM.

For `Cc1ccc(C(=O)O)c(C)c1-c1cc2c(cc1Cl)N(c1ccccc1)C[C@@H](C1CCCCC1)N(C)S2(=O)=O` [Example 147, 3-((3R)-7-chloro-3-cyclohexyl-2-methyl-1,1-dioxido-5-phenyl-2,3,4,5-tetrahydrobenzo[f][1,2,5]thiadiazepin-8-yl)-2,4-dimethylbenzoic acid], the EC50 was greater than 1 µM.

same assay, conditions: Hepatitis B virus, 192 h; HBV infection of HepG2-NTCP cells; HBeAg in supernatants at day 8 post infection; read-out: Cellular EC50

First: CN1[C@H](C2CCCCC2)CN(c2ccccc2)c2cc(C3CCN(C(=O)OC(C)(C)C)C3)c(-c3ccc(F)c(C(=O)O)c3)cc2S1(=O)=O (stereo partly drawn) [Example 593]
Second: CN1[C@H](C2CCCCC2)CN(c2ccccc2)c2cc(OCCCC3CCN(C(=O)OC(C)(C)C)CC3)c(-c3ccc(F)c(C(=O)O)c3)cc2S1(=O)=O [Example 368]
The EC50 of the first is higher: 0.1 to 1 µM for the first, less than 0.1 µM for the second.

`CN1[C@H](C2CCCCC2)CN(c2ccccc2)c2cc(OCc3ccoc3)c(-c3ccc(F)c(C(=O)O)c3)cc2S1(=O)=O` [Example 333] and `CN1[C@H](C2CCCCC2)CN(c2ccccc2)c2cc(OCc3ccccc3)c(-c3ccc(F)c(C(=O)O)c3)cc2S1(=O)=O` [Example 332, (R)-5-(7-(benzyloxy)-3-cyclohexyl-2-methyl-1,1-dioxido-5-phenyl-2,3,4,5-tetrahydrobenzo[f][1,2,5]thiadiazepin-8-yl)-2-fluorobenzoic acid] cannot be ordered by EC50: less than 0.1 µM for the first, less than 0.1 µM for the second.

`CN1[C@H](C2CCCCC2)CN(c2cccc(F)c2)c2cc(Cl)c(-c3ccc(F)c(C(=O)O)c3)cc2S1(=O)=O` [Example 295] and `CN1[C@H](C2CCCCC2)CN(c2cccc(C(F)(F)F)c2)c2cc(Cl)c(-c3ccc(F)c(C(=O)O)c3)cc2S1(=O)=O` [Example 301] fall in the same range of EC50: 0.1 to 1 µM for the first, 0.1 to 1 µM for the second.

`CC(C)C[C@@H]1CN(c2ccccc2)c2cc(OC3CC4(COC4)C3)c(-c3ccc(F)c(C(=O)O)c3)cc2S(=O)(=O)N1C` [Example 444] and `COCCOc1cc2c(cc1-c1ccc(Cl)c(C(=O)O)c1)S(=O)(=O)N(C)[C@H](CC(C)C)CN2c1ccccc1` [Example 445] fall in the same range of EC50: 0.1 to 1 µM for the first, 0.1 to 1 µM for the second.

First: CN1[C@H](C2CCCCC2)CN(c2ccccc2)c2cc(-n3ccccc3=O)c(-c3ccc(F)c(C(=O)O)c3)cc2S1(=O)=O [Example 530]
Second: CN1[C@H](C2CCCCC2)CN(c2ccccc2)c2cc(Oc3cccnc3)c(-c3ccc(F)c(C(=O)O)c3)cc2S1(=O)=O [Example 415]
The EC50 of the first is higher: greater than 1 µM for the first, 0.1 to 1 µM for the second. The second is the more potent here.

Compared with `CCCCC1CN(c2ccccc2)c2cc(CNc3ccccc3F)c(-c3ccc(F)c(C(=O)O)c3)cc2S(=O)(=O)N1C` (stereo not drawn) [Example 565], `CN1[C@H](Cc2ccc(Cl)cc2)CN(c2ccccc2)c2cc(Cl)c(-c3ccc(F)c(C(=O)O)c3)cc2S1(=O)=O` [Example 49] is higher in EC50: 0.1 to 1 µM for the first, greater than 1 µM for the second. The first is the more potent here.

Compared with `CN1[C@H](C2CCCCC2)CN(c2ccccc2)c2cc(OCc3cncn3C)c(-c3ccc(F)c(C(=O)O)c3)cc2S1(=O)=O` [Example 390], `CN1[C@H](C2CCCCC2)CN(c2ccccc2)c2cc(OCCCCO)c(-c3ccc(F)c(C(=O)O)c3)cc2S1(=O)=O` [Example 365] is lower in EC50: greater than 1 µM for the first, less than 0.1 µM for the second.

First: CN1[C@H](C2CCCCC2)CN(c2ccccc2)c2cc(Cl)c(-c3cc(C(=O)O)c(Cl)s3)cc2S1(=O)=O [Example 123]
Second: CN1[C@H](C2CCCCC2)CN(c2ccccc2)c2cc(Cl)c(-c3nc(C(=O)O)co3)cc2S1(=O)=O [Example 131, (R)-2-(7-chloro-3-cyclohexyl-2-methyl-1,1-dioxido-5-phenyl-2,3,4,5-tetrahydrobenzo[f][1,2,5]thiadiazepin-8-yl)oxazole-4-carboxylic acid]
The EC50 of the first is lower: less than 0.1 µM for the first, 0.1 to 1 µM for the second.

`CN1[C@H](C2CCCCC2)CN(c2ccccc2)c2cc(Cl)c(-c3cc(C(=O)O)ccn3)cc2S1(=O)=O` [Example 139, (R)-2-(7-chloro-3-cyclohexyl-2-methyl-1,1-dioxido-5-phenyl-2,3,4,5-tetrahydrobenzo[f][1,2,5]thiadiazepin-8-yl)isonicotinic acid] and `CN1[C@H](C2CCCCC2)CN(c2ccccc2)c2cc(Cl)c(-c3ccnc(C(=O)O)c3)cc2S1(=O)=O` [Example 137, (R)-4-(7-chloro-3-cyclohexyl-2-methyl-1,1-dioxido-5-phenyl-2,3,4,5-tetrahydrobenzo[f][1,2,5]thiadiazepin-8-yl)picolinic acid] fall in the same range of EC50: 0.1 to 1 µM for the first, 0.1 to 1 µM for the second.

`CN1[C@H](C2CCCCC2)CN(c2ccccc2)c2cc(OCc3cscc3F)c(-c3cc(F)c(C(=O)O)s3)cc2S1(=O)=O` [Example 488] and `CN1[C@H](C2CCCCC2)CN(c2ccccc2)c2cc(OCc3csc(Cl)c3)c(-c3cc(F)c(C(=O)O)s3)cc2S1(=O)=O` [Example 487] cannot be ordered by EC50: less than 0.1 µM for the first, less than 0.1 µM for the second.

First: CN1[C@H](C2CCCCC2)CN(c2ccccc2)c2cc(C3CC(F)(F)C3)c(-c3ccc(F)c(C(=O)O)c3)cc2S1(=O)=O [Example 589]
Second: CN1[C@H](C2CCCCC2)CN(c2ccccc2)c2cc(C3CCOCC3)c(-c3ccc(F)c(C(=O)O)c3)cc2S1(=O)=O [Example 591]
The EC50 of the first is lower: less than 0.1 µM for the first, 0.1 to 1 µM for the second.

Going from `CN1[C@H](C2CCCCC2)CN(c2ccccc2)c2cc(Cl)c(-c3cc(C(=O)O)c4cn[nH]c4c3)cc2S1(=O)=O` [Example 208, (R)-6-(7-chloro-3-cyclohexyl-2-methyl-1,1-dioxido-5-phenyl-2,3,4,5-tetrahydrobenzo[f][1,2,5]thiadiazepin-8-yl)-1H-indazole-4-carboxylic acid] to `CN1[C@H](C2CCC2)CN(c2ccccc2)c2cc(Cl)c(-c3ccc(Cl)c(C(=O)O)c3)cc2S1(=O)=O` [Example 81], the EC50 falls from greater than 1 µM to less than 0.1 µM. The second is the more potent here.

`CC(C)C[C@@H]1CN(C(C)C)c2cc(Nc3ccccc3F)c(-c3ccc(F)c(C(=O)O)c3)cc2S(=O)(=O)N1C` [Example 561] and `CC(C)C[C@@H]1CN(c2ccccc2)c2cc(Nc3ccc(F)cc3)c(-c3ccc(Cl)c(C(=O)O)c3)cc2S(=O)(=O)N1C` [Example 548] fall in the same range of EC50: 0.1 to 1 µM for the first, 0.1 to 1 µM for the second.

Compared with `CC(C)CC1CN(c2ccccc2)c2cc(Cl)c(-c3cccc(C(=O)O)c3)cc2S(=O)(=O)N1C` (stereo not drawn) [Example 33], `CC(C)C[C@@H]1CN(c2ccccc2)c2cc(Cl)c(-c3cccc(S(N)(=O)=O)c3)cc2S(=O)(=O)N1C` [Example 168] is higher in EC50: 0.1 to 1 µM for the first, greater than 1 µM for the second. The first is the more potent here.

`CO[C@H]1C[C@H](Oc2cc3c(cc2-c2ccc(F)c(C(=O)O)c2)S(=O)(=O)N(C)[C@H](C2CCCCC2)CN3c2ccccc2)C1` [Example 378] and `CN1[C@H](C2CCCCC2)CN(c2ccccc2)c2cc(OC3CCC(C)(C)CC3)c(-c3ccc(F)c(C(=O)O)c3)cc2S1(=O)=O` [Example 386] fall in the same range of EC50: 0.1 to 1 µM for the first, 0.1 to 1 µM for the second.

`COCCOc1cc2c(cc1-c1cc(NC(=O)OCC(C)C)c(C(=O)O)s1)S(=O)(=O)N(C)[C@H](C1CCCCC1)CN2c1ccccc1` [Example 516, (R)-5-(3-cyclohexyl-7-(2-methoxyethoxy)-2-methyl-1,1-dioxido-5-phenyl-2,3,4,5-tetrahydrobenzo[f][1,2,5]thiadiazepin-8-yl)-3-((isobutoxycarbonyl)amino)thiophene-2-carboxylic acid] and `Cc1nc(COc2cc3c(cc2-c2cc(F)c(C(=O)O)s2)S(=O)(=O)N(C)[C@H](C2CCCCC2)CN3c2ccccc2)sc1C` [Example 500] cannot be ordered by EC50: less than 0.1 µM for the first, less than 0.1 µM for the second.

First: CC(C)C[C@@H]1CN(c2ccccc2)c2cc(C3CCN(C(=O)OC(C)(C)C)CC3)c(-c3ccc(F)c(C(=O)O)c3)cc2S(=O)(=O)N1C [Example 592]
Second: CN1[C@H](C2CCCCC2)CN(c2ccccc2)c2cc(C3CCN(C(=O)c4ccno4)CC3)c(-c3ccc(F)c(C(=O)O)c3)cc2S1(=O)=O [Example 599]
The EC50 of the first is lower: 0.1 to 1 µM for the first, greater than 1 µM for the second.

First: CC(C)CC1CN(C2CCC2)c2cc(Cl)c(-c3cccc(C(=O)O)c3)cc2S(=O)(=O)N1C (stereo not drawn) [Example 328]
Second: CC(C)C[C@@H]1CN(c2ccccc2)c2cc(Cl)c(-c3ccc([N+](=O)[O-])c(C(=O)O)c3)cc2S(=O)(=O)N1C [Example 183]
The EC50 of the first is higher: 0.1 to 1 µM for the first, less than 0.1 µM for the second.

Compared with `CO[C@@H](C)[C@@H]1CN(c2ccccc2)c2cc(Cl)c(-c3ccc(F)c(C(=O)O)c3)cc2S(=O)(=O)N1C` [Example 88, 5-((S)-7-chloro-3-((S)-1-methoxyethyl)-2-methyl-1,1-dioxido-5-phenyl-2,3,4,5-tetrahydrobenzo[f][1,2,5]thiadiazepin-8-yl)-2-fluorobenzoic acid], `COCOC[C@@H]1CN(c2ccccc2)c2cc(Cl)c(-c3ccc(F)c(C(=O)O)c3)cc2S(=O)(=O)N1C` [Example 97, (S)-5-(7-chloro-3-((methoxymethoxy)methyl)-2-methyl-1,1-dioxido-5-phenyl-2,3,4,5-tetrahydrobenzo[f][1,2,5]thiadiazepin-8-yl)-2-fluorobenzoic acid] is lower in EC50: greater than 1 µM for the first, 0.1 to 1 µM for the second. The second is the more potent here.

First: CN1[C@H](C2CCCCC2)CN(c2ccccc2)c2cc(Cl)c(-c3ccc(Cl)c(S(N)(=O)=O)c3)cc2S1(=O)=O [Example 200]
Second: CN1[C@H](C2CCCCC2)CN(c2ccccc2)c2cc(Cl)c(-c3ccc(NS(=O)(=O)CCC(F)(F)F)c(C(=O)O)c3)cc2S1(=O)=O [Example 268]
The EC50 of the first is higher: 0.1 to 1 µM for the first, less than 0.1 µM for the second. The second is the more potent here.

First: O=C(O)c1cc(-c2cc3c(cc2Cl)N(c2ccccc2)C[C@@H](C2CCCCC2)NS3(=O)=O)ccc1F [Example 58]
Second: COC(C)(C)C#Cc1cc2c(cc1-c1ccc(F)c(C(=O)O)c1)S(=O)(=O)N(C)[C@H](C1CCCCC1)CN2c1ccccc1 [Example 604]
The EC50 of the first is higher: 0.1 to 1 µM for the first, less than 0.1 µM for the second. The second is the more potent here.

Compared with `CC(C)C[C@@H]1CN(c2ccccc2)c2cc(-c3cccc4ncoc34)c(-c3ccc(F)c(C(=O)O)c3)cc2S(=O)(=O)N1C` [Example 578], `COc1cc(F)ccc1Oc1cc2c(cc1-c1ccc(F)c(C(=O)O)c1)S(=O)(=O)N(C)[C@H](C1CCCCC1)CN2c1ccccc1` [Example 406] is lower in EC50: 0.1 to 1 µM for the first, less than 0.1 µM for the second.
